# Tests used:
# TfR = TfR (Homo sapiens, UniProt P02786); assay: Sandwich ELISA, binding of fluorescent PLGA-GA/PLGA NS to TfR; conditions: 200 ng of TfR
# Protocol: GA has been previously shown to have affinity for TfR, independent of transferrin binding. To evaluate the translation of the avidity of GA for TfR in PLGA-GA NS, a sandwich ELISA method was employed. The initial study involved the determination of the effect of surface GA density of NS in their binding affinity to TfR. […] The total […] of the NS suspension available in the wells without TfR was also measured in order to ensure that the variation in the FI with TfR was caused by the binding of the NS to the receptor.
# [1] = described in literature; cited from earlier work
# Caco-2 cells = assay: Concentration dependent toxicity in Caco-2 cells; format: cell-based; conditions: human
# Protocol: Cell death observed in the latter case could be attributed to the cumulative effect of high concentration of polymer and available GA. However, a moderate treatment of 250 μg NS appears to be safe for the cells. The amount of GA present in all the NS in […] was much lower than the established safe dose of 60 mg/kg described in literature.
# Chain of TfR (P02786 whole entry, species assumed): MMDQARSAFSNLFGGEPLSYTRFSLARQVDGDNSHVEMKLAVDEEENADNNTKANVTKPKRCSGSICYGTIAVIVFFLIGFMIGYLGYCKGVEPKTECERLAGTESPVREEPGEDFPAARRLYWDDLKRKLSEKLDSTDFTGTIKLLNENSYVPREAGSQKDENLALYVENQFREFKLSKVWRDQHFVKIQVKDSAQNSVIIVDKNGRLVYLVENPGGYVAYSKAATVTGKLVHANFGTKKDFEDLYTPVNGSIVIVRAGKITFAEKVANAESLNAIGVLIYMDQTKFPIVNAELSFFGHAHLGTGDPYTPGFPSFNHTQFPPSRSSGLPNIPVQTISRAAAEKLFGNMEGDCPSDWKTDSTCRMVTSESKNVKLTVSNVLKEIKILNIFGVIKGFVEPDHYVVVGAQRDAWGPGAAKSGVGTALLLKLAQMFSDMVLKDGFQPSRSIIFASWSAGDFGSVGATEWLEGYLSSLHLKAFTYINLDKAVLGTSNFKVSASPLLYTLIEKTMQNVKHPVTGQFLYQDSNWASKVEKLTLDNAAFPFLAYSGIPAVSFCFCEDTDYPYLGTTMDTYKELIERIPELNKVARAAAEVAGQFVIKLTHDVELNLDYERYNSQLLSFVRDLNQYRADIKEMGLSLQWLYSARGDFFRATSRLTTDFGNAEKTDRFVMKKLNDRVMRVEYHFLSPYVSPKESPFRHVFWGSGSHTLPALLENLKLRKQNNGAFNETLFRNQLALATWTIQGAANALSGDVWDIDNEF
smiles,measurement,setting,value
"CC(C)=CCC[C@]1(C)C=Cc2c(O)c3c(c(CC=C(C)C)c2O1)O[C@]12C(=C[C@@H]4C[C@H]1C(C)(C)O[C@@]2(C/C=C(/C)C(=O)O)C4=O)C3=O [GA, gambogic acid]",competition with 2° antibody for TfR (colorimetric TfR levels),TfR,does not compete with 2° antibody for TfR
same,established safe dose,[1],60 mg/kg
same,cell death,Caco-2 cells; 20 μM,25%
same,cell death,Caco-2 cells; 30 μM,46%

# Reference: patent US10786465B2, “Polymer/copolymer nanoparticles conjugated to gambogic acid” (The Texas A&M University System, priority 2015, dated 2020)
